Laboratory results published in patent publication US20230174571A1, “METHOD OF TREATING SHIP1-MEDIATED DISEASES USING PELOROL DERIVATIVES” (Zebrapeutics Inc., priority 2020, published 2023).

Assays:
[1] = test system: LPS-induced TNFα; assay: Mouse endotoxemia model: serum TNFα after i.p. LPS; type: in vivo; details: 1 h
Protocol: Mouse Endotoxemia Model. Groups of 6-8 week old BALB/c SHIP1+/+ and SHIP1−/−mice were intraperitoneally injected with either 1 or 5 mg/kg of LPS with or without co-administration of 1 mg/kg of IL10. Blood was drawn 1 hour later by cardiac puncture for determination of plasma cytokine levels by ELISA. ELISA kits were purchased from BD Biosciences (Mississauga, ON) for TNFα.
A role for STAT3 in mediating IL10 inhibition of TNFα in vivo was first described by Takeda et al (Takeda et al., 1999). […] This implies that a protein other than STAT3 might contribute to IL10 action. […] Presently, the ability of IL10 to inhibit LPS-induced inflammatory cytokine/chemokine expression in vivo is shown (FIG. 1A) in SHIP1^+/+ and SHIP1^−/− mice, and found IL10 inhibited TNFα in SHIP1^+/+ but not SHIP1^−/− mice. It was previously shown that SHIP1 phosphatase activity is allosterically stimulated by its product PI(3,4)P2 (Ong et al., 2007). […] Presently, it is shown that compound I-1 inhibits LPS-induced TNFα in SHIP1^+/+ but not SHIP1^−/− mice, showing that these compounds can mimic anti-inflammatory properties of IL10 and is indeed specific for SHIP1 (FIG. 1B).
Data represent means of *p<0.05, **p<0.01 when compared with LPS-alone-stimulated mice, ns=not significant. […] Fractions were collected every 5 min for measurement of TNFα levels Data are representative of two independent experiments.

[2] = target: T1, Clover-SHIP1 and mRuby2-STAT3 (Mus musculus, UniProt Q9ES52); assay: Acceptor photobleaching FRET analysis; type: cell-based; details: J17 SHIP1−/− cells expressing Clover-SHIP1/mRuby2-STAT3; 1 minute; 100 ng/ml IL10, IL6 or 20 μM I-2
T1 construct: expressed in transfected cells; host or cells: J17 (SHIP1-/- mouse macrophage line), lentiviral transduction
Protocol: Acceptor Photobleaching FRET analysis. J17 cells expressing Clover-SHIP1 and/or mRuby2-STAT3 were seeded at 50×10^4 cells per well in 8-well Ibidi p-Slides (Ibidi GmbH, Martinsried, Germany). After overnight incubation, cells were serum-starved with Mac media containing 1% serum for 3 hours before media replacement with Leibovitz's (L-15) media (Invitrogen, Burlington, ON) supplemented with 1% serum, 10 μM β-mercaptoethanol, 150 μM monothioglycolate and 1 mM L-glutamine for confocal microscopy imaging. Cells were imaged on a Leica SP8X on DMi8 confocal microscope system with a 63×/1.3 Gly HC PL APO CS2 objective using a white light laser line with 488 nm for donor excitement and 555 nm for acceptor excitement. Photobleaching FRET analysis was performed by measuring Clover-SHIP1 donor fluorescence intensity before and after bleaching the acceptor, mRuby2-STAT3, within a field of cells ‘region of interest’ (ROI), at 100% laser intensity for 60 frames. Acceptor photobleaching was performed first in resting cells then at 1 minute (±5 seconds) following ‘mock’ stimulation with L-15 media, or L-15 media containing 100 ng/ml IL10, IL6 or 20 μM compound I-2. Donor and acceptor fluorescence intensity of individual cells within the bleached ROI was quantified before and after bleaching. Percentage FRET efficiency was calculated as % FRETeff=100×(Dpost−Dpre)/Dpost where Dpre and Dpost represent Clover-SHIP1 donor fluorescence intensity before and after bleaching, respectively.

T1 sequence (Q9ES52 whole entry): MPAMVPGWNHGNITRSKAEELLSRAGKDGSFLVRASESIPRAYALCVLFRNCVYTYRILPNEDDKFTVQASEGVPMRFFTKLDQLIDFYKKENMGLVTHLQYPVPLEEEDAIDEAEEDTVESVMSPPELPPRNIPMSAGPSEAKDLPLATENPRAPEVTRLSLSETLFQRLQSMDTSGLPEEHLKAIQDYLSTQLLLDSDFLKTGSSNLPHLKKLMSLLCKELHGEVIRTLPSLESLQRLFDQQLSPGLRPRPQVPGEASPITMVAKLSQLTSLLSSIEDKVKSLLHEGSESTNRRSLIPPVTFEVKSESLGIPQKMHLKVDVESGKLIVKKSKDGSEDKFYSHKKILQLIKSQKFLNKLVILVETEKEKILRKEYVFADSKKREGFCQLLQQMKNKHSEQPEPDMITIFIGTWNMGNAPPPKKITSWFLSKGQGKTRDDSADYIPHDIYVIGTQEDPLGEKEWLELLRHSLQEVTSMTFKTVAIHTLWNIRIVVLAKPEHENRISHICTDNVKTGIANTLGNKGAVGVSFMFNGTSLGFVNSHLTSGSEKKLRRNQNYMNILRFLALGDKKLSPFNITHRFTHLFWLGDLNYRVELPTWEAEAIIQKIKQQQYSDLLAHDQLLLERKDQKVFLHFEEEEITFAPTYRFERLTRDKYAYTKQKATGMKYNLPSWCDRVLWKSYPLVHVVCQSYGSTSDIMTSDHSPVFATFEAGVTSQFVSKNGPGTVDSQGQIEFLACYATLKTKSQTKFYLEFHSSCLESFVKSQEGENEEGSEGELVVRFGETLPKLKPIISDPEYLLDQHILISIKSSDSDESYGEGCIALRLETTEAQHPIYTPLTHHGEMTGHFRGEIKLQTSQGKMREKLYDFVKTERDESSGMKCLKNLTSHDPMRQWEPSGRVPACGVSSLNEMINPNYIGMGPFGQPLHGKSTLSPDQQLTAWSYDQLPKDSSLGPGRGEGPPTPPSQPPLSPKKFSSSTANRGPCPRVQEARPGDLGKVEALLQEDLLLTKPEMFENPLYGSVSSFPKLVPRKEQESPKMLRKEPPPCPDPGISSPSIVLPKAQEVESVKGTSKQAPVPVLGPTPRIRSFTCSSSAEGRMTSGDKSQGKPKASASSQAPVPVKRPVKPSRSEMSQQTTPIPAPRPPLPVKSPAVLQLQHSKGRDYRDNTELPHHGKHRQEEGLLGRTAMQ
T1 sequence (P42227 whole entry partner): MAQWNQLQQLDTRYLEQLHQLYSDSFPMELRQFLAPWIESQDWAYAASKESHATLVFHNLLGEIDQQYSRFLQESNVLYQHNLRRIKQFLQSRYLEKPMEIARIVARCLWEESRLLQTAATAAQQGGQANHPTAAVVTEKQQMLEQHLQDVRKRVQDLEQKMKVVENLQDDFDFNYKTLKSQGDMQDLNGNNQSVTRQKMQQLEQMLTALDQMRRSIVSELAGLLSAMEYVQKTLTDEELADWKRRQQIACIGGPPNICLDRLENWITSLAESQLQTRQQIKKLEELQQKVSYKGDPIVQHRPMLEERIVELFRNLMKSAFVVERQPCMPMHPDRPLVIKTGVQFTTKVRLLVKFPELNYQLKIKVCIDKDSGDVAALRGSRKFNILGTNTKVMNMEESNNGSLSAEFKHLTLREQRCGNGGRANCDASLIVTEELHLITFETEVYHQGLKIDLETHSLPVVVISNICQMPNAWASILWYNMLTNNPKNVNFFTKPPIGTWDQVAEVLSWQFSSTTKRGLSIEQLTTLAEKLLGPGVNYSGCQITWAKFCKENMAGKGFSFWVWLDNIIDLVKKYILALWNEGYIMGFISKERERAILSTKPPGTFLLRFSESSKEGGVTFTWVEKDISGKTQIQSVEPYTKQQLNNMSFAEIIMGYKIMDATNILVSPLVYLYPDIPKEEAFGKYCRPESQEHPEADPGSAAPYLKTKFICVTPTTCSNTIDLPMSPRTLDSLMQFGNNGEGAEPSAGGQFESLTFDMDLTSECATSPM

Row | Molecule | LPS-induced TNFα (serum) ([1]; SHIP1+/+ mice) | LPS-induced TNFα (serum) ([1]; SHIP1−/− mice) | Clover-mRuby2 FRET signal [2]
1 | IL10: anti-inflammatory cytokine interleukin-10 | inhibited | not | increases
2 | CC12CCC3C(C)(C)C(N)CCC3(C)C1Cc1cc(O)cc(O)c12 (stereo not drawn) [Compound I-2] | – | – | increases
3 | Cc1cc(O)cc2c1C1(C)CCC3C(C)(C)CCCC3(C)C1C2 (stereo not drawn) [Compound I-1] | inhibits | not | –
